Reference: patent US8710097B2, “Flavonoid dimers and methods of making and using such” (The Hong Kong Polytechnic University, priority 2006, dated 2014)
In brackets after ≈: the same amount, converted by molar mass. Like-named read-outs stand apart in the source and are kept apart here.

Tests used:
[1] = tested on: MDA435/LCC6 MDR cells; experiment: cells; conditions: for IC50: Homo sapiens; for RF (relative fold): LCC6 MDR, drug alone (reference)
Method: (§1) MDA435/LCC6 and P388 (both parent and MDR subtype) were maintained in DMEM and RPMI 1640 culture medium supplemented with 10% FBS, respectively. RPMI 1640 media also contained 100 units/ml penicillin and 100 μg/ml streptomycin. Cells were cultured at 37° C. in a humidified atmosphere with 5% CO2. A solution of 0.05% trypsin-EDTA was used to detach the MDA435/LCC6 (both wild type and MDR subtype) cells.
(§2) Cell proliferation assay. MDA435/LCC6 and P388 (both parent and MDR subtype) cells were seeded at 2000 and 5000 cells per well, respectively, in 96-well plates. Varying concentrations of anticancer drugs (Doxorubicin, Daunorubicin, Vincristine, Vinblastine, taxol, Mitoxantrone) with or without the flavonoid dimers were added in a final volume of 200 μl and cells were grown for 4 and 3 days for MDA435/LCC6 and P388 (both parent and MDR subtype) cells, respectively. For MDA435/LCC6 (both parent and MDR subtype), the corresponding drugs were added after cell attachment (24 hr incubation). To measure cell proliferation, the cell Titer 960 Aqueous Assay (Promega) was used according to the manufacturer's instructions. Briefly, MTS (2 mg/ml) and PMS (0.92 mg/ml) were mixed in a ratio of 20:1. 30 μl MTS/PMS mixture was added into each well and incubated for 2 hours at 37° C. Optical absorbance at 490 nm was then recorded using an ELISA microtiter plate reader (Bio-Rad). Each experiment was done at least in triplicate and repeated twice. Cytotoxicity of the anticancer drugs was expressed as the fraction of the cells survived relative to the untreated DMSO (0.05%) solvent controls.
MDA435/LCC6 is an estrogen-independent human breast cancer cell line. Its MDR subtype (MDA435/LCC6 MDR) was generated by transducing a retroviral vector directing the constitutive expression of the human MDR1 cDNA, producing a cell line with a classical MDR1 resistance pattern (MDA435/LCC6 and MDA435/LCC6MDR1: ascites models of human breast cancer. Br J Cancer 1996, 73, 154-161). The ability of the apigenin dimers of this invention to reverse taxol resistance in MDA435/LCC6 MDR cells were tested. […] Apigenin monomers 10a and 10b at 10 μM were used as the negative controls.

[2] = tested on: P388/ADR cells; experiment: Doxorubicin accumulation; format: cell-based, murine; conditions: monomer 10b at double concentration of the dimers, FIG. 11A
Method: For P388 (both parent and MDR subtype) cells, 1 ml (10^5 cells) confluent cells were aliquot into Eppendorf tube and pre-incubated with flavone dimers for 30 min at 37° C. Doxorubicin (final concentration of 10 μM) was then added and incubated for 2 h at 37° C. at a final concentration of 10 μM. The cell pellets were washed 3 times with cold PBS by using an Eppendorf micro-centrifuge and lysed with 0.3N HCL in 50% ethanol, and sonicated for 30s. After centrifugation at 10000 rpm/min for 3 min, the supernatant was saved. The fluorescence of doxorubicin was measured using a spectrofluorometer (λexcite=470 nm, λemit=585 nm).

[3] = tested on: pentamidine-resistant L. enriettii LePentR50 promastigotes; experiment: microbe, parasite or virus in culture; conditions: Leishmania enriettii, 72 h, read-out: IC50(μM) of synthetic flavonoid, LePentR50, cytotoxicity of compound alone; 72 hrs
Method: (§3) Cell lines and Cell Culture. Promastigotes of Leishmania enriettii (LePentR50, Le wild type, LeMDR1 −/− and LeMDR1-overexpressed LeV160 mutants) and Leishmania donovani (LdAG83, Ld2001 and Ld39) were employed in this study. The former is a natural infective strain of guinea pig and the latter is a clinical strain, which may cause visceral leishmaniasis in human. Both strains were cultured in Schneider's Drosophila Medium (Invitrogen), pH 6.9 supplemented with 10% (v/v) heat inactivated fetal calf serum (Hyclone) with 4 mM glutamine (Sigma) and 25 μg/mL gentamicin solution (Invitrogen), at 27° C. for 4 days (Cloning and functional analysis of an extrachromosomally amplified multidrug resistance-like gene in Leishmania enriettii. Mol. Biochem. Parasitol 1993, 60, 195-208).
Promastigotes of LeV160 were culture in the presence of 160 μg/mL vinblastine. No pentamidine and vinblastine (Sigma) was added to the Le wild type and LeMDR1 −/− mutant.
(§4) The viability of promastigotes was determined by the Cell Titer 96® Aqueous Assay (Promega) that employs a tetrazolium compound (MTS) and electron coupling reagent, phenazine methosulfate (PMS). Promastigotes were seeded into 96-well flat bottom microtiter plate at 1×10^5 cells per well in a final volume of 100 μL medium. To determine the cytotoxic effects of flavonoid dimers to the parasites, various concentrations of flavonoid dimers were added to the promastigotes. To determine the reversal effects of flavonoid dimers with different spacer lengths, various concentrations of antileishmanial drugs, one of pentamidine or SSG, vinblastine and puromycin was added to the wells with or without flavonoid dimers. The parasites were incubated at 27° C. for 72 hrs. Each concentration of antileishmanials with or without the flavonoid dimers was tested in triplicates in each experiment. A 2 mg/mL MTS and 0.92 mg/mL PMS were mixed at a ratio of 20:1 (MTS: PMS). After 72-hr incubation, 10 μL of MTS:PMS mixture was added into each well of microtiter plate. The plate was then incubated at 27° C. for 4 hrs for color development. After 4 hrs of incubation, the OD values were determined at 490 nm using automatic microtiter plate reader (Bio-Rad).

[4] = tested on: wild type L. donovani LdAG83 promastigotes; experiment: Leishmania cell viability (MTS) assay; format: cell-based, Leishmania donovani; conditions: Leishmania donovani, 72 h, read-out: IC50(μM) of synthetic flavonoid, LdAG83
Method: as §3, with “195-208). […]” for “195-208).”
as §4

[5] = tested on: SSG-resistant L. donovani Ld39 promastigotes; experiment: microbe, parasite or virus in culture; format: cell-based, Leishmania donovani; conditions: for IC50: Leishmania donovani, 72 h, read-out: IC50(μM) of synthetic flavonoid, Ld39
Method: as §3, with “195-208). […]” for “195-208).”
as §4

[6] = tested on: LeMDR1 knockout (LeMDR1 −/−) L. enriettii; experiment: Leishmania cell viability (MTS) assay; format: cell-based, Leishmania enriettii; conditions: LeMDR1 −/−
Description: (§5) Cell lines and Cell Culture.

[7] = tested on: MDA435/LCC6 cells; experiment: Cell proliferation (MTS) assay, parental sensitive cells; format: cell-based; conditions: Homo sapiens, read-out: IC50 (nM) of anticancer drug alone
Description: (§6) Cell proliferation assay.

[8] = tested on: P388/ADR cells; experiment: cells; conditions: P388/ADR; for IC50: Mus musculus; for RF (relative fold): drug alone (reference)
Method: as §1, §2

[9] = tested on: P388 cells; experiment: Cell proliferation (MTS) assay, parental sensitive cells; format: cell-based, murine; conditions: Mus musculus
Description: as §6

[10] = tested on: LeMDR1 overexpressed L. enriettii (LeV160); experiment: Leishmania cell viability (MTS) assay; format: cell-based, Leishmania enriettii; conditions: Leishmania enriettii
Description: as §5

[11] = MDA435/LCC6 MDR, 5 μM dimer, FIG. 5
[12] = 96 h, read-out: IC50 (nM) of anticancer drug alone, LCC6 MDR, drug alone, no modulator
[13] = read-out: IC50 (nM) of anticancer drug alone
[14] = read-out: IC50 of anticancer drug alone
[15] = P388, drug alone, read-out: IC50 (nM) of anticancer drug alone

| SMILES | IC50 [1, 12] [nM] | RF (relative fold) [1] | IC50 [8, 13] [nM] | RF (relative fold) [8] | IC50 ([7]; LCC6, drug alone) [nM] | IC50 [9, 15] [nM] | further results |
| --- | --- | --- | --- | --- | --- | --- | --- |
| O=c1cc(-c2ccc(OCCOCCOc3ccc(-c4cc(=O)c5c(O)cc(O)cc5o4)cc3)cc2)oc2cc(O)cc(O)c12 [Compound 9b, 1,7-Bis[4′-((5,7-dihydroxy)-4H-chromen-4-on-2-yl)phenyl]-1,4,7-trioxaheptane] |  |  |  |  |  |  | IC60 of doxorubicin with modulator [1, 11]: 1300 nM; reduction of IC60 of doxorubicin, RF [1, 11]: ~3.1 RF; activity on doxorubicin accumulation [2]: comparable activity to 9d; IC50 [3]: > 200 µM; IC50 [4]: > 200 µM; SSG resistance modulating activity ([5]; Ld39, dimers at 6 μM, FIG. 14B): did not show substantial SSG resistance modulating activity; IC50 [5]: > 200 µM; pentamidine sensitization [6]: 2.0 fold |
| O=c1cc(-c2ccc(OCCOCCOCCOCCOCCOCCOCCOCCOc3ccc(-c4cc(=O)c5c(O)cc(O)cc5o4)cc3)cc2)oc2cc(O)cc(O)c12 [Compound 9h, 1,25-Bis[4′-((5,7-dihydroxy)-4H-chromen-4-on-2-yl)phenyl]-1,4,7,10,13,16,19,22,25-nonaoxapentacosane] |  |  |  |  |  |  | doxorubicin sensitization ([1]; MDA435/LCC6 MDR, dimers): very little or no doxorubicin sensitization; reversing effect on taxol resistance ([1]; MDA435/LCC6 MDR, dimers at 5 μM): little or no reversing effect; IC50 [4]: 12 ± 0.2 µM; IC50 [5]: 14 ± 0.1 µM; pentamidine sensitization [6]: 2.3 fold |
| COc1cccc2c1C(=O)c1c(O)c3c(c(O)c1C2=O)C[C@@](O)(C(C)=O)C[C@@H]3O[C@H]1C[C@H](N)[C@H](O)[C@H](C)O1 [Daunorubicin] | 977 | 1 | 2110 | 1 |  |  | IC50 [7]: 79 nM; IC50 [8, 14]: 2100 nM; IC50 ([9]; P388, read-out: IC50 (nM) of anticancer drug alone): 25 nM |
| COc1cccc2c1C(=O)c1c(O)c3c(c(O)c1C2=O)C[C@@](O)(C(=O)CO)C[C@@H]3O[C@H]1C[C@H](N)[C@H](O)[C@H](C)O1 [Doxorubicin] | 4690 | 1 | 1740 | 1 | 300 | 22 | IC60 of doxorubicin alone ([1]; MDA435/LCC6 MDR, no modulator, FIG. 5): 4700 nM; IC50 [8, 14]: 1500 nM |
| O=C1c2c(O)ccc(O)c2C(=O)c2c(NCCNCCO)ccc(NCCNCCO)c21 [Mitoxantrone] | 1440 | 1 | 395 | 1 | 0.35 | 4.3 |  |
| CC(=O)O[C@H]1C(=O)[C@@]2(C)[C@H]([C@H](OC(=O)c3ccccc3)[C@]3(O)C[C@H](OC(=O)[C@H](O)[C@@H](NC(=O)c4ccccc4)c4ccccc4)C(C)=C1C3(C)C)[C@]1(OC(C)=O)CO[C@@H]1C[C@@H]2O [Taxol, paclitaxel] | 115 | 1 | 1640 | 1 | 2.9 | 22 | IC50 ([1]; read-out: Mean IC50 of taxol (nM), LCC6MDR, no analog added (control)): 128 nM |
| CC[C@]1(O)C[C@@H]2CN(CCc3c([nH]c4ccccc34)[C@@](C(=O)OC)(c3cc4c(cc3OC)N(C)[C@H]3[C@@](O)(C(=O)OC)[C@H](OC(C)=O)[C@]5(CC)C=CCN6CC[C@]43[C@@H]65)C2)C1 [Vinblastine] | 4.8 | 1 |  | 1 | 0.34 | 4.1 | IC50 ([8]; 72 h, read-out: IC50 (nM) of anticancer drug alone): 95 nM; IC50 ([10]; read-out: IC50 of vinblastine (μg/ml), no modulator): 167 ± 3.6 µg/mL (≈ 206 µM) |
| CC[C@]1(O)C[C@H]2CN(CCc3c([nH]c4ccccc34)[C@@](C(=O)OC)(c3cc4c(cc3OC)N(C=O)[C@H]3[C@@](O)(C(=O)OC)[C@H](OC(C)=O)[C@]5(CC)C=CCN6CC[C@]43[C@@H]65)C2)C1 [Vincristine] | 26 | 1 | 299 | 1 | 0.29 | 2.2 |  |
| COc1ccc(C[C@H](N)C(=O)N[C@H]2[C@@H](O)[C@H](n3cnc4c(N(C)C)ncnc43)O[C@@H]2CO)cc1 [puromycin] |  |  |  |  |  |  | IC50 ([10]; read-out: IC50 of puromycin (μg/ml), no modulator): 16 ± 1 µg/mL (≈ 33.9 µM) |
